Data published in US10111846B2, “S isomers of alpha-methyl-hydrocinnamic acid for the treatment of blood disorders” (priority 2009, dated 2018).
“Also recorded” adds a separate entry of the source.

What was measured:
[1] = system: erythropoiesis and myelopoiesis; assay: In vitro cell culture testing of stimulation of erythropoiesis and myelopoiesis; type: cell-based; settings: for concentration giving stimulation of erythropoiesis and myelopoiesis: cell culture, data not shown
Description: ST7S is shown to stimulate myelopoiesis and erythropoiesis in animal subjects. […] Thus, the employed concentration of S isomer is about 4-fold lower than that of racemate to achieve similar degrees of erythropoiesis and myelopoiesis.

erythropoiesis [2] = assay: ST7 once daily to mice for 5 days: erythropoiesis (hematocrit, hemoglobin); type: in vivo; settings: once daily for 5 days, by day 14
erythropoiesis [3] = assay: Oral ST7 in baboon with daily phlebotomy, chronic anemia; type: in vivo; settings: oral 50 mg/kg per day, 5 days a week over 3 weeks
[4] = system: WBC and neutrophil counts; assay: WBC and absolute neutrophil counts (ANC) in baboons; type: in vivo, baboon
Description: FIG. 12 is a graph showing increase in both white blood cells (WBC) and Absolute neutrophil counts (ANC) after oral administration of 200 mg/kg ST7S on days 0-4 results in a 3-fold stimulation in WBC and neutrophil counts over 6 days.
In particular, oral administration of ST7 to a baboon results in a 3-fold stimulation of WBC count over 6 days (FIG. 2A).

[5] = system: human hematopoietic cultures; assay: CFU-GM colony formation in human hematopoietic cultures; type: cell-based
platelet counts = assay: Platelet counts in nonhuman primates; type: in vivo, baboon; settings: IV to 3 baboons on days 1-3 and 7-9
Description: ST7 was administered via IV to baboons on days 1-3 and 7-9. ST7 works as similarly in all three baboons (Baboon numbers: GG24, FM45, FM83).
Administration of ST7 also increases platelet levels after administration to non-human primates.

[6] = system: Chemotherapy-Induced Neutropenia Murine Model; assay: Chemotherapy (5-FU)-induced neutropenia murine model; type: in vivo, mice
Description: Mice were treated with 5-FU on day 0, then received daily SC injection of saline or ST7 or G-CSF beginning on Day 1 and absolute neutrophil counts (ANC) were assessed on days 0, 9 and 13.
Additionally, administration of ST7 also enhances Myeloid Recovery in a Chemotherapy-Induced Neutropenia Murine Model. Mice were treated with 5-FU on day 0, then received daily SC injection of saline (control) or ST7 or G-CSF beginning on Day 1 and the absolute neutrophil counts (ANC) were assessed on days 0, 9 and 13.

Mcl-1L to Mcl-1S = assay: Western blot of Mcl-1L to Mcl-1S protein expression (anti-apoptotic proteins); type: cell-based; settings: after exposure
Description: (§1) FIG. 7A is a histogram showing hemokines SCFADs induce anti-apoptotic proteins. FIG. 7B is a western blot of Mcl-1L to Mcl-1S protein expression (with β-actin as a protein loading control).

[7] = system: cultured normal human neutophils; assay: Human neutrophil survival in vitro; type: cell-based; settings: 200 μM, 50 μM
Description: as §1

[8] = PK profiles after oral and IV administration in baboons; type: in vivo
Description: (§2) FIGS. 8A-8B show […] and oral bioavailability of ST7. […] Target does equivalent to 20 mg/kg in an adult human.
(§3) Accordingly, ST7 is suitable for once/day dosing.

[9] = Oral administration to a normal human subject, plasma levels; type: in vivo
Description: as §2, §3

[10] = system: sub-lethally irradiated mouse model; assay: Sub-lethally irradiated (6 Gy) mouse model, ANC; type: in vivo, mice; design: platelet level, level below which decrease was prevented at any timepoint / ANC, level below which decline was prevented at any time: unit not given here
Description: FIG. 9 is a graph of absolute neutrophil count (ANC) response to NaST7 (500 mg/kg IP and 300 mg/kg IP) after sub-lethal does of irradiation where mice were exposed to 6 Gy irradiation on day 0 and daily ST7 (enantiomer) was administered at two doses, beginning day 1.
(§4) In particular, absolute neutrophil count (ANC) increased after administration of NaST7 (500 mg/kg IP and 300 mg/kg IP) after sub-lethal does of irradiation (e.g., exposure to 6 Gy irradiation on day 0).

bone marrow = assay: Lethally-irradiated murine model, bone marrow histology; type: in vivo, mice; settings: LD90 irradiation day 0, daily SC from day 1, day 15
Description: Mice were irradiated at LD90 on day 0, and received daily SC injections of ST7-S or saline (control) starting Day 1. Bone marrow was examined on Day 15.
as §4

[11] = oral 200 mg/kg on days 0-4, over 6 days

CC(Cc1ccccc1)C(=O)O (racemic) [ST7, α-methyl-hydrocinnamic acid]
concentration giving stimulation of erythropoiesis and myelopoiesis [1]: about 200 μM | hematocrit (erythropoiesis [2]): significant increase in hematocrit | absolute increase in hematocrit level (erythropoiesis [3]): 7 percentage points | increase in hematocrit level, % of baseline (erythropoiesis [3]): 28% | increase in total hemoglobin level (erythropoiesis [3]): 2.5 g/dL | stimulation of WBC count ([4]; baboon, oral, over 6 days): 3 fold | CFU-GM colony formation [5]: increases CFU-GM Colony formation | platelet count (platelet counts): stimulation of platelet count in all animals; also recorded: increased platelet counts | recovery of ANC ([6]; 5-FU day 0, daily SC injection from day 1, day 13): accelerated recovery of ANC by day 13 as efficiently as G-CSF | increase in NE (K/μL) as compared to saline control ([6]; day 13): 7-10 fold | ratios of Mcl-1L to Mcl-1S (Mcl-1L to Mcl-1S): shifted towards anti-apoptotic actions | apoptosis of neutrophils [7]: suppresses apoptosis | bioavailability ([8]; baboon, in vivo, po, non-human primates, 113 mg/kg): > 90% | PK profiles oral versus IV ([8]; non-human primates): nearly identical PK profiles | drug levels relative to target dose ([9]; normal human subject, oral 1 or 1.4 grams): persist above the target dose for several hours | ANC, level below which decline was prevented at any time ([10]; 500 mg/kg IP and 300 mg/kg IP daily from day 1, 6 Gy on day 0): ≥ 200 | platelet level, level below which decrease was prevented at any timepoint ([10]; 500 mg/kg IP and 300 mg/kg IP daily from day 1, sub-lethal irradiation): ≥ 200

CC(Cc1ccccc1)C(=O)[O-].[Na+] (stereo not drawn) [ST7S, S-isomer of alpha-methyl-hydrocinnamic acid]
fold lower concentration of S isomer than racemate for similar degrees of erythropoiesis and myelopoiesis [1]: about 4 fold | concentration giving stimulation of erythropoiesis and myelopoiesis [1]: about 50 μM | neutrophil counts (ANC), short-term administration ([4]; baboons, 100 mg/kg at day 0-2 and day 7-9): increases neutrophil counts | neutrophil counts (ANC), long term ([4]; baboons, 47 days, administered at 1-5 days and 34-38 days): increases neutrophil counts; also recorded: Neutrophil counts increase | stimulation in WBC [4, 11]: 3 fold | stimulation in neutrophil counts [4, 11]: 3 fold | time available after administration ([8]; about 113 mg/kg administered orally, FIG. 8A): at least 4 hours | time available after administration ([9]; about 1.4 g administered orally, FIG. 8B): at least 14 hours | bone marrow histology (bone marrow): stimulates bone marrow recovery; also recorded: normocellular marrows
